Results: US20090036410A1, “Structured Phospholipids” (BTG INTERNATIONAL LIMITED, priority 2004, published 2009)

Columns and labels:
[1] = Storage stability / handling of the isolated phospholipid; format: physicochemical
Excerpt: Suitable diluents and carriers can be found in the literature in texts such as Remington's Pharmaceutical Sciences. One particular material investigated by the inventors has been PEG (polyethylene glycol) eg. PEG200. This can be used at amounts between 1 and 99% PEG to 99% to 1% by weight of active phospholipid, preferably 20 to 80% PEG to 80 to 20% of phospholipid and more preferably 40 to 60% PEG to 60 to 40% by weight of phospholipid.
The invention provides a first method of its preparation of compounds GGPc, DHGLADHGLAPc and AAPc in a one step process (scheme 5, method A) by reaction of sn-glycerophosphocholine cadmium complex with γ-linolenic, dihomo-γ-linolenic, or arachidonic anhydride (formed eg. from the n-6 acid and dicylohexylcarbodiimide). Purification of the crude product uses eg. copper sulfate washes to remove DMAP and column chromatography to take out other by-products. The first batch of product for the γ-linolenic product (44 g, 85% purity) was obtained as a yellow wax.
On a 7 g scale higher purity GGPc could be obtained by more rigorous chromatography. Furthermore freeze-drying a dioxan solution of this material gave a white solid. This solid was hygroscopic and gained weight and went to a foam on prolonged exposure to the atmosphere.

[2] = system: CREAE model MOG in C57BL mice; assay: CREAE model, MOG-induced, clinical EAE score; format: in vivo
EAE = conditions: guinea-pig; cited from earlier work
acute rat EAE = conditions: depending on dose; cited from earlier work

purity after storage (deterioration) ([1]; over 6 months, first batch, initially 85% purity yellow wax, turned brown suggesting oxidation)	hygroscopicity of freeze-dried white solid ([1]; prolonged exposure to the atmosphere, gained weight and went to a foam)	SMILES	effect on EAE score compared to CCC (dose response curve) ([2]; 100 microL dose, p<0.050 compared to CCC (150 microL))	protection / severity of CREAE ([2]; 100 ul of 50% phospholipid in PEG200)	efficacy in the CREAE model compared to the lipid GGG of PCT/GB2004/003524 ([2]; MOG in C57BL mice, oral, initial results)	protection in CREAE ([2]; dose 100 ul, oral)	shape of dose response curve ([2]; doses 25, 50, 100 and 200 microL)	effect on EAE score (dose response curve) ([2]; higher dose of 200microL)	effect on incidence and severity of EAE (EAE)	protection in acute rat EAE (acute rat EAE)
70%	hygroscopic	CCCCC/C=C\C/C=C\C/C=C\CCCCC(=O)OC[C@H](COP(=O)([O-])OCC[N+](C)(C)C)OC(=O)CCCC/C=C\C/C=C\C/C=C\CCCCC [GGPc, 1,2-Di(γ-linolenyl)-sn-glycerophosphocholine]	significant effect	protection/reduced severity	superior in efficacy	excellent protection	bell shaped curve	no effect	–	–
–	–	CCCCC/C=C\C/C=C\CCCCCCCC(=O)O [linoleic acid]	–	–	–	–	–	–	partially suppresses	dose-dependent action on the clinical severity but did not abolish it
–	–	CCCCC/C=C\C/C=C\C/C=C\CCCCC(=O)O [γ-linolenic acid]	–	–	–	–	–	–	–	fully protective
